≈ marks a conversion by molar mass, not a printed value.
Key:
[1] = Cytotoxicity against HEK293 cells assessed as survival rate at 800 uM measured after 48 hrs by CCK-8 method relative to control; format: toxicity, cell-based; settings: human, read-out: Survival
Pseudomonas aeruginosa = experiment: Antimicrobial activity against Pseudomonas aeruginosa PAO1 measured after 24 hrs by CLSI protocol based microdilution method; format: functional
[2] = Hemolytic activity in sheep erythrocytes assessed as hemolysis at 64 ug/ml incubated for 1 hr by microplate reader based analysis relative to control; format: toxicity, cell-based, Ovis aries, Erythrocyte; settings: at 64 µg/mL, read-out: Activity
Acinetobacter baumannii = experiment: Antimicrobial activity against Acinetobacter baumannii ATCC19606 measured after 24 hrs by CLSI protocol based microdilution method; format: functional
Escherichia coli = experiment: Antimicrobial activity against Escherichia coli ATCC25922 measured after 24 hrs by CLSI protocol based microdilution method; format: functional
[3] = Inhibition of N-terminal his 6 tagged Escherichia coli Fabi (1 to 789 residues) expressed in Escherichia coli BL21 incubated for 30 mins in presence of NADH by fluorescence based microplate reader analysis
[4] = Hemolytic activity in sheep erythrocytes assessed as hemolysis at 128 ug/ml incubated for 1 hr by microplate reader based analysis relative to control; format: toxicity, cell-based, Ovis aries, Erythrocyte; settings: at 128 µg/mL, read-out: Activity
Staphylococcus aureus [5] = experiment: Antimicrobial activity against methicillin-susceptible Staphylococcus aureus ATCC25923 measured after 24 hrs by CLSI protocol based microdilution method; format: functional
HepG2 [6] = experiment: Cytotoxicity against human HepG2 cells assessed as survival rate at 800 uM measured after 48 hrs by CCK-8 method relative to control; format: functional; settings: read-out: Survival
[7] = Hemolytic activity in sheep erythrocytes assessed as hemolysis at 256 ug/ml incubated for 1 hr by microplate reader based analysis relative to control; format: toxicity, cell-based, Ovis aries, Erythrocyte; settings: at 256 µg/mL, read-out: Activity
Enterococcus faecium = experiment: Antimicrobial activity against Enterococcus faecium ATCC19434 measured after 24 hrs by CLSI protocol based microdilution method; format: functional
[8] = Inhibition of N-terminal his 6 tagged Acinetobacter baumannii Fabi (1 to 804 residues) expressed in Escherichia coli BL21 incubated for 30 mins in presence of NADH by fluorescence based microplate reader analysis
Staphylococcus aureus [9] = experiment: Antimicrobial activity against […] Staphylococcus aureus ATCC33591 measured after 24 hrs by CLSI protocol based microdilution method; format: functional
[10] = molecular target: T1, Enoyl-[acyl-carrier-protein] reductase [NADPH] FabI (Staphylococcus aureus, UniProt Q6GI75); experiment: Inhibition of N-terminal his 6 tagged Staphylococcus aureus Fabi (1 to […] residues) expressed in Escherichia coli BL21 incubated for 30 mins in presence of NADPH by fluorescence based microplate reader analysis
T1 sequence (Q6GI75 whole entry): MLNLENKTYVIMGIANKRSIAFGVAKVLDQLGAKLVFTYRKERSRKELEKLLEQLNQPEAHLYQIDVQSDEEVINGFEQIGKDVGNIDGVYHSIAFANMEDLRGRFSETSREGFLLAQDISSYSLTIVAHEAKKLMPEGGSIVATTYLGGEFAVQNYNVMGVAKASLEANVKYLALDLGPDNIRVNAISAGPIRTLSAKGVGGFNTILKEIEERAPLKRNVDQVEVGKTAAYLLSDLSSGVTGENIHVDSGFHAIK

Staphylococcus aureus [11] = experiment: Antimicrobial activity against […] Staphylococcus aureus USA300 measured after 24 hrs by CLSI protocol based microdilution method; format: functional
Staphylococcus aureus [12] = experiment: Antimicrobial activity against […] Staphylococcus aureus NRS271 measured after 24 hrs by CLSI protocol based microdilution method; format: functional
[13] = Cytotoxicity against HEK293 cells assessed as survival rate at 400 uM measured after 48 hrs by CCK-8 method relative to control; format: toxicity, cell-based; settings: human, read-out: Survival
[14] = Selectivity index, ratio of HC50 for sheep erythrocytes to MIC for Staphylococcus aureus; format: toxicity; settings: read-out: Selectivity Index
HepG2 [15] = experiment: Cytotoxicity against human HepG2 cells assessed as survival rate at 400 uM measured after 48 hrs by CCK-8 method relative to control; format: functional; settings: read-out: Survival
Staphylococcus aureus [16] = experiment: Antimicrobial activity against Staphylococcus aureus measured after 24 hrs by CLSI protocol based microdilution method; format: functional
[17] = Hemolytic activity in sheep erythrocytes assessed as hemolysis incubated for 1 hr by microplate reader based analysis; format: toxicity, cell-based, Ovis aries, Erythrocyte
[18] = molecular target: T2, Enoyl-[acyl-carrier-protein] reductase [NADPH] FabI (Staphylococcus aureus) (UniProt Q6GI75); experiment: Inhibition of N-terminal his 6 tagged Staphylococcus aureus Fabi (1 to […] residues) expressed in Escherichia coli BL21 at 1 uM incubated for 30 mins in presence of NADPH by fluorescence based microplate reader analysis relative to control
T2 sequence (whole entry): T1 sequence (Q6GI75 whole entry)

Enterococcus faecalis = experiment: Antimicrobial activity against Enterococcus faecalis ATCC29212 measured after 24 hrs by CLSI protocol based microdilution method; format: functional
[19] = molecular target: T2, Enoyl-[acyl-carrier-protein] reductase [NADPH] FabI (Staphylococcus aureus); experiment: Inhibition of N-terminal his 6 tagged Staphylococcus aureus Fabi (1 to […] residues) expressed in Escherichia coli BL21 at 10 uM incubated for 30 mins in presence of NADPH by fluorescence based microplate reader analysis relative to control
Staphylococcus aureus [20] = experiment: Antimicrobial activity against […] Staphylococcus aureus ATCC43300 measured after 24 hrs by CLSI protocol based microdilution method; format: functional
Candida albicans = experiment: Antimicrobial activity against Candida albicans SC5314 measured after 48 hrs by CLSI protocol based microdilution method; format: functional
Staphylococcus aureus [21] = experiment: Antimicrobial activity against methicillin-susceptible Staphylococcus aureus ATCC29213 measured after 24 hrs by CLSI protocol based microdilution method; format: functional

SMILES | MIC (Pseudomonas aeruginosa) [µg/mL] | MIC (Acinetobacter baumannii) [µg/mL] | MIC (Escherichia coli) [µg/mL] | IC50 [3] [nM] | MIC (Staphylococcus aureus [5]) [µg/mL] | MIC (Enterococcus faecium) [µg/mL] | IC50 [8] [nM] | MIC (Staphylococcus aureus [9]) [µg/mL] | IC50 [10] [nM] | MIC (Staphylococcus aureus [11]) [µg/mL] | MIC (Staphylococcus aureus [12]) [µg/mL] | inhibition [18] [%] | MIC (Enterococcus faecalis) [µg/mL] | inhibition [19] [%] | MIC (Staphylococcus aureus [20]) [µg/mL] | MIC (Candida albicans) [µg/mL] | MIC (Staphylococcus aureus [21]) [µg/mL] | also measured
Cc1c(Cl)cccc1N1CC(c2nc3ccccc3n2C)CC1=O (stereo unspecified) | > 32 | > 32 | > 32 | 35.9 | 2 (≈ 5.89 µM) | > 32 | 266 | 2 (≈ 5.89 µM) | 429 | 4 (≈ 11.8 µM) | 4 (≈ 11.8 µM) | 76.8 | > 32 | 99.1 | 2 (≈ 5.89 µM) | > 32 | 2 (≈ 5.89 µM) | viability at 48 h, 800 µM [1]: > 65%; hemolysis at 1 h, 64 ug/ml [2]: 3.8%; hemolysis at 1 h, 128 ug/ml [4]: 6.9%; viability at 800 µM (HepG2 [6]): > 65%; hemolysis at 1 h, 256 ug/ml [7]: 13.2%; viability at 48 h, 400 µM [13]: > 70%; selectivity ratio [14]: > 64; viability at 400 µM (HepG2 [15]): > 70%; MIC (Staphylococcus aureus [16]): 2 µg/mL (≈ 5.89 µM); HC50 at 1 h [17]: > 256 µg/mL
Cn1c(C2CC(=O)N(c3cccc(Br)c3Cl)C2)nc2ccccc21 (stereo unspecified) | > 32 | > 32 | > 32 | 35.9 | 1 (≈ 2.47 µM) | > 32 | 266 | 2 (≈ 4.94 µM) | 331 | 1 (≈ 2.47 µM) | 4 (≈ 9.88 µM) | 80.3 | > 32 | 97.4 | 2 (≈ 4.94 µM) | > 32 | 2 (≈ 4.94 µM) | viability at 48 h, 800 µM [1]: > 75%; hemolysis at 1 h, 64 ug/ml [2]: 2.8%; hemolysis at 1 h, 128 ug/ml [4]: 4.7%; viability at 800 µM (HepG2 [6]): > 75%; hemolysis at 1 h, 256 ug/ml [7]: 10.6%; viability at 48 h, 400 µM [13]: > 70%; selectivity ratio [14]: > 64; viability at 400 µM (HepG2 [15]): > 70%; MIC (Staphylococcus aureus [16]): 1 µg/mL (≈ 2.47 µM); HC50 at 1 h [17]: > 256 µg/mL
Cn1c(C2CC(=O)N(c3cccc(Br)c3F)C2)nc2ccccc21 (stereo unspecified) | > 32 | > 32 | > 32 | 35.9 | 2 (≈ 5.15 µM) | > 32 | 266 | 4 (≈ 10.3 µM) | 482 | 4 (≈ 10.3 µM) | 8 (≈ 20.6 µM) | 71.2 | > 32 | 95.3 | 4 (≈ 10.3 µM) | > 32 | 2 (≈ 5.15 µM) | –
COc1cccc(N2CC(c3nc4ccccc4n3C)CC2=O)c1C (stereo unspecified) | > 32 | > 32 | > 32 | – | 32 (≈ 95.4 µM) | > 32 | – | > 32 | 2270 | 16 (≈ 47.7 µM) | 16 (≈ 47.7 µM) | 27.9 | > 32 | 88.2 | 32 (≈ 95.4 µM) | > 32 | 16 (≈ 47.7 µM) | –
Cn1c(C2CC(=O)N(c3cccc4ccccc34)C2)nc2ccccc21 (stereo unspecified) | > 32 | > 32 | > 32 | – | 8 (≈ 23.4 µM) | > 32 | – | 8 (≈ 23.4 µM) | 1080 | 8 (≈ 23.4 µM) | 16 (≈ 46.9 µM) | 48.4 | > 32 | 96.9 | 16 (≈ 46.9 µM) | > 32 | 8 (≈ 23.4 µM) | –
Cc1cccc(N2CC(c3nc4ccccc4n3C)CC2=O)c1 (stereo unspecified) | > 32 | > 32 | > 32 | – | > 32 | > 32 | – | > 32 | 5700 | > 32 | > 32 | 4.9 | > 32 | 67.7 | > 32 | > 32 | > 32 | –
Cc1c(N2CC(c3nc4ccccc4n3C)CC2=O)cccc1C(F)(F)F (stereo unspecified) | > 32 | > 32 | > 32 | – | 8 (≈ 21.4 µM) | > 32 | – | 4 (≈ 10.7 µM) | 632 | 8 (≈ 21.4 µM) | 8 (≈ 21.4 µM) | 66.1 | > 32 | 93.9 | 4 (≈ 10.7 µM) | > 32 | 4 (≈ 10.7 µM) | –
